Reference: ChEMBL document CHEMBL6074689 (Eur J Med Chem, 2025)
Active and inactive are the calls of the source. The rule behind the calls is not given here.

Tests used:
Acetylcholinesterase [1] = target: T1, Acetylcholinesterase (Homo sapiens, UniProt P22303); test: Inhibition of human recombinant AChE expressed in HEK293 cells using acetylthiocholine iodide as substrate preincubated with compound for 30 mins followed by substrate addition and measured after 30 mins by DTNB reagent based Ellman's method
T1 sequence (P22303 whole entry): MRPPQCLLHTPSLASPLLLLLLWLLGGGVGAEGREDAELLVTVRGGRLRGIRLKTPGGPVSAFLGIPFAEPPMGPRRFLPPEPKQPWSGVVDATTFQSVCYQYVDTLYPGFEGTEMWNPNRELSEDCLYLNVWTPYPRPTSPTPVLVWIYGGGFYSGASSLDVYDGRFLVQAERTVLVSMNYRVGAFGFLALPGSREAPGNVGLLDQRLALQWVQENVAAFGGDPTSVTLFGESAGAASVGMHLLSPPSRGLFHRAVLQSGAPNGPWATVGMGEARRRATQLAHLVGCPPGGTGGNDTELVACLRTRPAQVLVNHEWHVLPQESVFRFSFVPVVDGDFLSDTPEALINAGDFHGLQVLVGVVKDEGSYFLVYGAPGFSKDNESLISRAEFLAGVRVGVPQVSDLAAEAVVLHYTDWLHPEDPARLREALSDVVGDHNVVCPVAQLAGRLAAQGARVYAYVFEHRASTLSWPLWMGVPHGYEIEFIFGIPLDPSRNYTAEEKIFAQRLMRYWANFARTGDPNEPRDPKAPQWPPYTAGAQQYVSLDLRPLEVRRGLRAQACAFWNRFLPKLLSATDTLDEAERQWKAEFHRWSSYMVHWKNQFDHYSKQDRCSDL

Cholinesterase = Cholinesterase (Equus caballus, UniProt P81908); test: Inhibition of equine serum BChE using acetylthiocholine iodide as substrate preincubated with compound for 30 mins followed by substrate addition and measured after 30 mins by DTNB reagent based Ellman's method
Cholinesterase, sequence (P81908 whole entry): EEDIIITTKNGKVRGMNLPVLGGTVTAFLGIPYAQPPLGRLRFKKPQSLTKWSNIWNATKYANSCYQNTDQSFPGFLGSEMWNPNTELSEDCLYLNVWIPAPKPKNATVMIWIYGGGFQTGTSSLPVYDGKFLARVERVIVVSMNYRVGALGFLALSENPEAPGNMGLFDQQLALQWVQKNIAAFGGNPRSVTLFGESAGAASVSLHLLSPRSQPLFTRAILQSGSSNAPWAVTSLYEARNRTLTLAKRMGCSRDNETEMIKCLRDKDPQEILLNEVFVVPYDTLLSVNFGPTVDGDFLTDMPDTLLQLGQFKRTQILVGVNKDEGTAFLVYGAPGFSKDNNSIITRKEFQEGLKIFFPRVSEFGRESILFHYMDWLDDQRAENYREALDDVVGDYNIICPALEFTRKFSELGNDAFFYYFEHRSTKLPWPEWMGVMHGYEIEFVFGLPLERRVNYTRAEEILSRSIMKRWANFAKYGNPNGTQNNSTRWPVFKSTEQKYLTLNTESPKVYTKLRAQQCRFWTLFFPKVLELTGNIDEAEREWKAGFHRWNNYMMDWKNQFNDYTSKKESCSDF

Acetylcholinesterase [2] = target: T1, Acetylcholinesterase; test: Displacement of propidium iodide from human AChE PAS assessed as reduction in fluorescence intensity at 5 uM incubated for 6 hrs by fluorescence based analysis relative to control; set-up: scale not given: the % may be the effect or the level left
Acetylcholinesterase [3] = target: T1, Acetylcholinesterase; test: Displacement of propidium iodide from human AChE PAS assessed as reduction in fluorescence intensity at 1 uM incubated for 6 hrs by fluorescence based analysis relative to control; set-up: scale not given: the % may be the effect or the level left
Acetylcholinesterase [4] = target: T1, Acetylcholinesterase; test: Displacement of propidium iodide from human AChE PAS assessed as reduction in fluorescence intensity at 0.1 uM incubated for 6 hrs by fluorescence based analysis relative to control; set-up: scale not given: the % may be the effect or the level left
Acetylcholinesterase [5] = target: T1, Acetylcholinesterase; test: Displacement of propidium iodide from human AChE PAS assessed as reduction in fluorescence intensity at 0.01 uM incubated for 6 hrs by fluorescence based analysis relative to control; set-up: scale not given: the % may be the effect or the level left
[6] = Antioxidant activity assessed as DPPH radical scavenging activity at 200 uM incubated for 30 mins relative to control; type: functional
[7] = Toxicity in Drosophila melanogaster Oregon R-positive assessed as reduction in eclosed flies at 50 uM measured for 15 days relative to control; set-up: scale not given: the % may be the effect or the level left; conditions: 360 h, time 15 day
[8] = Toxicity in Drosophila melanogaster Oregon R-positive assessed as reduction in eclosed flies at 100 uM measured for 15 days relative to control; set-up: scale not given: the % may be the effect or the level left; conditions: 360 h, time 15 day
[9] = Toxicity in Drosophila melanogaster Oregon R-positive assessed as reduction in eclosed flies at 200 uM measured for 15 days relative to control; set-up: scale not given: the % may be the effect or the level left; conditions: 360 h, time 15 day
[10] = Toxicity in Drosophila melanogaster Oregon R-positive assessed as reduction in eclosed flies at 400 uM measured for 15 days relative to control; set-up: scale not given: the % may be the effect or the level left; conditions: 360 h, time 15 day
Drosophila melanogaster [11] = test: Anti-alzheimer activity in ey-GAL4 driven UAS-amyloid beta (1 to 42) induced Drosophila melanogaster Oregon R-positive assessed as mild eye phenotype at 50 uM by Stereo zoom microscopic imaging analysis relative to control; type: functional
Drosophila melanogaster [12] = test: Anti-alzheimer activity in ey-GAL4 driven UAS-amyloid beta (1 to 42) induced Drosophila melanogaster Oregon R-positive assessed as severe eye phenotype at 50 uM by Stereo zoom microscopic imaging analysis relative to control; type: functional
Drosophila melanogaster [13] = test: Anti-alzheimer activity in ey-GAL4 driven UAS-amyloid beta (1 to 42) induced Drosophila melanogaster Oregon R-positive assessed as mild eye phenotype at 100 uM by Stereo zoom microscopic imaging analysis relative to control; type: functional
Drosophila melanogaster [14] = test: Anti-alzheimer activity in ey-GAL4 driven UAS-amyloid beta (1 to 42) induced Drosophila melanogaster Oregon R-positive assessed as rescued eye phenotype at 100 uM by Stereo zoom microscopic imaging analysis relative to control; type: functional
Drosophila melanogaster [15] = test: Anti-alzheimer activity in ey-GAL4 driven UAS-amyloid beta (1 to 42) induced Drosophila melanogaster Oregon R-positive assessed as reduction in superoxide level at 100 uM by fluorescence based analysis; type: functional, organism-based
Drosophila melanogaster [16] = test: Inhibition of oxidative stress in y-GAL4 driven UAS-amyloid beta (1 to 42) induced Drosophila melanogaster Oregon R-positive assessed as reduction in ROS level at 50 uM incubated for 30 mins by H2DCFDA staining based analysis; type: functional, organism-based
Mus musculus [17] = test: Antialzheimer activity in scopolamine-induced Swiss albino mouse model assessed as improvement in memory retention by measuring time spent in platform quadrant at 3 mg/kg, po preincubated with compound for 30 mins followed by scopolamine induction and measured after 5 days by Morris water maze test; type: functional, organism-based; conditions: time 7230.0 min
Mus musculus [18] = test: Antialzheimer activity in scopolamine-induced Swiss albino mouse model assessed as reduction in BChE level at 3 mg/kg, po preincubated with compound for 30 mins followed by scopolamine induction and measured after 30 mins; type: functional, organism-based; conditions: time 1.0 hrs
Mus musculus [19] = test: Antioxidant activity against scopolamine-induced Swiss albino mouse model assessed as increase in SOD level at 3 mg/kg, po by absorbance based analysis; type: functional, organism-based
[20] = Antioxidant activity assessed as DPPH radical scavenging activity incubated for 30 mins; type: functional

C[C@H](c1cccc(OC(=O)NCCc2c[nH]c3ccc(Cl)cc23)c1)N(C)C
IC50 (Acetylcholinesterase [1]): 8.38 nM
IC50 (Cholinesterase): 7.66 nM

CCN(C)C(=O)Oc1cccc([C@H](C)N(C)C)c1 [RIVASTIGMINE]
Activity (Acetylcholinesterase [2]): 8.74%
Activity (Acetylcholinesterase [3]): 6.3%
Activity (Acetylcholinesterase [4]): 2.96%
Activity (Acetylcholinesterase [5]): 1.61%
Activity [6]: 3.71%
Activity [7]: 108%
Activity [8]: 95%
Activity [9]: 73%
Activity [10]: 29%
Activity (Drosophila melanogaster [11]): 43%
Activity (Drosophila melanogaster [12]): 23%
Activity (Drosophila melanogaster [13]): 40%
Activity (Drosophila melanogaster [14]): 33%
Activity (Drosophila melanogaster [15]): Active
Activity (Drosophila melanogaster [16]): Active
Activity (Mus musculus [17]): Active
Activity (Mus musculus [18]): Active
Activity (Mus musculus [19]): Active

CC(c1cccc(OC(=O)NCCc2c[nH]c3ccc(O)cc23)c1)N(C)C (stereo not drawn)
IC50 (Acetylcholinesterase [1]): 2.31 nM
IC50 (Cholinesterase): 55.8 nM

COc1ccc2[nH]cc(CCNC(=O)Oc3cccc(C(C)N(C)C)c3)c2c1 (stereo not drawn)
IC50 (Acetylcholinesterase [1]): 48.3 nM
IC50 (Cholinesterase): 13.6 nM

O=C1O[C@H]([C@@H](O)CO)C(O)=C1O [ASCORBIC ACID]
IC50 [20]: 3510 nM

CC(c1cccc(OC(=O)NCCc2c[nH]c3ccc(Cl)cc23)c1)N(C)C (stereo not drawn)
IC50 (Acetylcholinesterase [1]): 13.8 nM
IC50 (Cholinesterase): 2.14 nM
Activity [6]: 33.3%
